Assay results: US20090163586A1, “Bis-(Sulfonylamino) Derivatives in Therapy 205” (AstraZeneca AB, priority 2007, published 2009)

What follows are molecules tested against T1, human mPGES-1 (Homo sapiens, UniProt O14684) (assay: Microsomal prostaglandin E synthase biochemical assay). Conditions: microsome preparation containing human mPGES-1; PGH2 10.8 μM, GSH 2.5 mM, pH 6.8; PGE2 by HTRF; average of at least n=2.
T1 sequence (O14684 1-152): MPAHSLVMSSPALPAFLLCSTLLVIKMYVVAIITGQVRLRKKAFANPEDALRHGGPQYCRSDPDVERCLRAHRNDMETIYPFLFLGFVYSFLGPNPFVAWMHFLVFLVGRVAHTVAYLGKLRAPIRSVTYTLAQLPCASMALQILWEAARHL
Summary of the method: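 Human mPGES-1 microsomes at 2 μg/mL were pre-incubated 15 min with compound (60 μM to 0.002 μM) in 50 mM potassium phosphate pH 6.8 with 2.5 mM GSH. The reaction was started with 10.8 μM PGH2 and stopped after 1 minute with acidic ferric chloride/citrate. PGE2 was quantified by HTRF; IC50 is the mean of at least 2 runs.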
An IC50 of 740 nM was found for `COc1ncc(-c2cccc(S(=O)(=O)Nc3ccsc3S(N)(=O)=O)c2)cc1Cl` [Example 215, 3-[3-(5-Chloro-6-methoxy-pyridin-3-yl)-benzenesulfonylamino]-thiophene-2-sulfonic acid amide] in this work. An IC50 of 130 nM was found for `NS(=O)(=O)c1ccccc1NS(=O)(=O)/C=C/c1ccc(OC(F)(F)C(F)F)cc1` [Example 216, (E)-2-(2-(4-(1,1,2,2-tetrafluoroethoxy)phenyl)vinylsulfonamido)benzenesulfonamide] in this work. An IC50 of 110 nM was found for `NS(=O)(=O)c1ccccc1NS(=O)(=O)/C=C/c1ccccc1OC(F)F` [Example 217, (E)-2-(2-(2-(difluoromethoxy)phenyl)vinylsulfonamido)benzenesulfonamide] in this work. An IC50 of 180 nM was found for `NS(=O)(=O)c1ccccc1NS(=O)(=O)/C=C/c1ccc(-c2ccc(C(F)(F)F)cc2)cc1` [Example 218, (E)-2-(2-(4′-(trifluoromethyl)biphenyl-4-yl)vinylsulfonamido)benzenesulfonamide] in this work. An IC50 of 950 nM was found for `CC(C)Oc1ccccc1/C=C/S(=O)(=O)Nc1ccccc1S(N)(=O)=O` [Example 219, (E)-2-(2-(2-isopropoxyphenyl)vinylsulfonamido)benzenesulfonamide] in this work. An IC50 of 270 nM was found for `CSc1ccccc1/C=C/S(=O)(=O)Nc1ccccc1S(N)(=O)=O` [Example 220, (E)-2-(2-(2-(methylthio)phenyl)vinylsulfonamido)benzenesulfonamide] in this work. An IC50 of 420 nM was found for `NS(=O)(=O)c1ccccc1NS(=O)(=O)/C=C/c1ccccc1OC(F)(F)F` [Example 221, (E)-2-(2-(2-(trifluoromethoxy)phenyl)vinylsulfonamido)benzenesulfonamide] in this work. An IC50 of 380 nM was found for `CCOc1ccccc1/C=C/S(=O)(=O)Nc1ccccc1S(N)(=O)=O` [Example 222, 2-[2-(2-ethoxy-phenyl)-ethenesulfonylamino]-benzenesulfonamide] in this work. An IC50 of 420 nM was found for `NS(=O)(=O)c1ccccc1NS(=O)(=O)CCc1ccc(OC(F)(F)C(F)F)cc1` [Example 223, 2-(2-(4-(1,1,2,2-tetrafluoroethoxy)phenyl)ethylsulfonamido)benzenesulfonamide] in this work. An IC50 of 100 nM was found for `NS(=O)(=O)c1ccccc1NS(=O)(=O)CCc1ccc(-c2ccc(C(F)(F)F)cc2)cc1` [Example 224, 2-(2-(4′-(trifluoromethyl)biphenyl-4-yl)ethylsulfonamido)benzenesulfonamide] in this work. An IC50 of 6300 nM was found for `NS(=O)(=O)c1ccccc1NS(=O)(=O)/C=C/c1ccccc1O` [Example 225, 2-[2-(2-Hydroxy-phenyl)-ethenesulfonylamino]-benzenesulfonamide] in this work. An IC50 of 1300 nM was found for `NS(=O)(=O)c1ccc(Cl)cc1NS(=O)(=O)CCc1ccc(OC(F)F)cc1` [Example 226, 4-Chloro-2-(2-(4-(difluoromethoxy)phenyl)ethylsulfonamido)benzenesulfonamide] in this work. An IC50 of 1900 nM was found for `COc1ccccc1CCS(=O)(=O)Nc1cc(Cl)ccc1S(N)(=O)=O` [Example 227, 4-Chloro-2-(2-(2-methoxyphenyl)ethylsulfonamido)benzenesulfonamide] in this work. An IC50 of 130 nM was found for `COc1cc(Cl)ccc1CCS(=O)(=O)Nc1cc(Cl)ccc1S(N)(=O)=O` [Example 228, 4-Chloro-2-(2-(4-chloro-2-methoxyphenyl)ethylsulfonamido)benzenesulfonamide] in this work. An IC50 of 5500 nM was found for `NS(=O)(=O)c1cc(F)cc(F)c1NS(=O)(=O)CCc1ccc(Cl)c(Cl)c1` [Example 229, 2-(2-(3,4-Dichlorophenyl)ethylsulfonamido)-3,5-difluorobenzenesulfonamide] in this work. An IC50 of 6100 nM was found for `COc1cc(NS(=O)(=O)c2cccc(Cl)c2Cl)c(S(N)(=O)=O)cc1F` [Example 230, 2,3-Dichloro-N-(4-fluoro-5-methoxy-2-sulfamoylphenyl)benzenesulfonamide] in this work. An IC50 of 130 nM was found for `NS(=O)(=O)c1ccc(Cl)cc1NS(=O)(=O)CCc1ccc(Cl)c(Cl)c1` [Example 231, 4-Chloro-2-(2-(3,4-dichlorophenyl)ethylsulfonamido)benzenesulfonamid] in this work. An IC50 of 870 nM was found for `NS(=O)(=O)c1cc(Cl)c(F)cc1NS(=O)(=O)CCc1ccc(Cl)cc1` [Example 232, 5-Chloro-2-(2-(4-chlorophenyl)ethylsulfonamido)-4-fluorobenzenesulfonamide] in this work. An IC50 of 150 nM was found for `NS(=O)(=O)c1cc(Cl)c(F)cc1NS(=O)(=O)CCc1ccc(Cl)c(Cl)c1` [Example 233, 5-Chloro-2-(2-(3,4-dichlorophenyl)ethylsulfonamido)-4-fluorobenzenesulfonamide] in this work. An IC50 of 6200 nM was found for `NS(=O)(=O)c1c(NS(=O)(=O)CCc2ccc(-c3ccco3)cc2)ccc2c1CCC2` [Example 234, 5-(2-(4-(Furan-2-yl)phenyl)ethylsulfonamido)-2,3-dihydro-1H-indene-4-sulfonamide] in this work. An IC50 of 6200 nM was found for `NS(=O)(=O)c1cc2c(cc1NS(=O)(=O)CCc1ccc(-c3ccco3)cc1)CCC2` [Example 235, 6-(2-(4-(Furan-2-yl)phenyl)ethylsulfonamido)-2,3-dihydro-1H-indene-5-sulfonamid] in this work. An IC50 of 4600 nM was found for `NS(=O)(=O)c1c(NS(=O)(=O)CCc2ccc(Cl)c(Cl)c2)ccc2c1CCC2` [Example 236, 5-(2-(3,4-Dichlorophenyl)ethylsulfonamido)-2,3-dihydro-1H-indene-4-sulfonamide] in this work. An IC50 of 6060 nM was found for `CNS(=O)(=O)c1ccccc1NS(=O)(=O)c1cccc(-c2ccc(Cl)c(Cl)c2)c1` [Example 239, 2-[[3-(3,4-Dichlorophenyl)phenyl]sulfonylamino]-N-methyl-benzenesulfonamide] in this work. An IC50 of 31 nM was found for `NS(=O)(=O)c1ccccc1NS(=O)(=O)CCc1ccc(C#Cc2ccc(C(F)(F)F)cc2)nc1` [Example 240, 2-(2-(6-((4-(Trifluoromethyl)phenyl)ethynyl)pyridin-3-yl)ethylsulfonamido)benzenesulfonamide] in this work.
